Test results reported in patent publication US11236084B2, “Substituted azaindoline derivatives as NIK inhibitors” (Janssen Pharmaceutica NV, priority 2017, dated 2022).
Where two headings read alike, the source gives them in different places.

Columns and labels:
[1] = tested on: P-IKKα levels in L363 (NIK translocated multiple myeloma) cells; assay: Biological Assay C: effect of compounds on P-IKKα levels in L363 (NIK translocated multiple myeloma) cells, performed at 2 locations; format: cell-based, human; settings: L363 cells, P-IKKα levels, averaged values
Protocol: Effect of Compounds on P-IKKα Levels in L363 (NIK Translocated Multiple Myeloma) Cells
All compounds tested were dissolved in DMSO and further dilutions were made in culture medium. Final DMSO concentration was 1% (v/v) in cell assays. The human L363 cells (ATCC) were cultured in RPMI 1640 medium supplemented with GlutaMax and 10% fetal calf serum (PAA). Cells were routinely maintained at densities of 0.2×10^6 cells per ml-1×10^6 cells per ml at 37° C. in a humidified 5% CO2 atmosphere. Cells were passaged twice a week splitting back to obtain the low density. Cells were seeded in 96 well plates (Nunc 167008) at 2×10^6 per ml media in a volume of 75 μl per well plus 25 μl […] recombinant human B-cell activating factor (BAFF/BLyS/TNFSF13B). Seeded cells were incubated at 37° C. in a humidified 5% CO2 atmosphere for 24 hr. Drugs and/or solvents were added (20 μl) to a final volume of 120 μl. Following 2 hr treatment plates were removed from the incubator and cell lysis was achieved by the addition of 30 μl 5× lysis buffer followed by shaking on a plate shaker at 4° C. for 10 min. At the end of this incubation lysed cells were centrifuged at 800×g for 20 min at 4° C. and the lysate was assessed for P-IKKα levels by sandwich immuno-assay carried out in anti-rabbit antibody coated Mesoscale plates. Within an experiment, the results for each treatment were the mean of 2 replicate wells. For initial screening purposes, compounds were tested using an 8 point dilution curve (serial 1:3 dilutions). For each experiment, controls (containing MG132 and BAFF but no test drug) and a blank incubation (containing MG132 and BAFF and 1 μM ADS125117, a test concentration known to give full inhibition) were run in parallel. The blank incubation value was subtracted from all control and sample values. To determine the IC50 a sigmoidal curve was fitted to the plot of % inhibition of control P-IKKα levels versus Log10 compound concentration.
Assay C was performed at 2 different locations.
(§1) Data for the compounds of the invention in the above assays are provided in Table A (the values in Table are averaged values over all measurements on all batches of a compound; values as IC50 (nM)). (‘n.c.’ means not calculated: ‘Co.’ means compound)

[2] = target: T1, recombinant human NF-kappaB-inducing kinase (NIK/MAP3K14) (Homo sapiens, UniProt Q99558); assay: Biological Assay A: inhibition of recombinant human NF-kappaB-inducing kinase (NIK/MAP3K14) activity (MBP phosphorylation, Mesoscale); settings: MSD MBP; averaged over all measurements on all batches; read-out: Assay A Biochemical (MSD MBP) IC50
T1 sequence (Q99558 whole entry): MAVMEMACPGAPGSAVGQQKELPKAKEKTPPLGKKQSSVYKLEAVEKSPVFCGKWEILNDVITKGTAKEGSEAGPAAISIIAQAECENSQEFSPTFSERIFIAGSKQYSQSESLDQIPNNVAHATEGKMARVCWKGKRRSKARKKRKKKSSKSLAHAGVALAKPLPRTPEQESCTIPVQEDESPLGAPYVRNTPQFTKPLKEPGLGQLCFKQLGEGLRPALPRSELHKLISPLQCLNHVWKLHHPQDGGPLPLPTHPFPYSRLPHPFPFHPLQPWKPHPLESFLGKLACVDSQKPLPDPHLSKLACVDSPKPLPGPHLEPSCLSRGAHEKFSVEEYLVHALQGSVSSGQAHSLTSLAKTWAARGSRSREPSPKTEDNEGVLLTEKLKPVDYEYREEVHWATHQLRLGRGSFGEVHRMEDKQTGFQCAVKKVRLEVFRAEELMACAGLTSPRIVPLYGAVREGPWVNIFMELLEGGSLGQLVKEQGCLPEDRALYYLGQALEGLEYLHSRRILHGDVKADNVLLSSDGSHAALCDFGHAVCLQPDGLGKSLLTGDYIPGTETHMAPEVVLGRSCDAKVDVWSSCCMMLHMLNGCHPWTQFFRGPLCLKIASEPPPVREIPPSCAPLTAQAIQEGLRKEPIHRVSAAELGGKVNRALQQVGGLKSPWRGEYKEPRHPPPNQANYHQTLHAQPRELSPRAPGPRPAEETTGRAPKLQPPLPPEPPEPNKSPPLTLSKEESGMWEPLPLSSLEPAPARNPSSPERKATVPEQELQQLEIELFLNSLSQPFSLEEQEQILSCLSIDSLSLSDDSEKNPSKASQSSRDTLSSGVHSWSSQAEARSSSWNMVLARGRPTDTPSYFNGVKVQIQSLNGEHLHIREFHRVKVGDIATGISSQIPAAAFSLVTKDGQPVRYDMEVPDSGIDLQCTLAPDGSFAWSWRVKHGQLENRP
Protocol: Pharmacological Part Biological Assay A Inhibition of Recombinant Human NF-kappaB-Inducing Kinase (NIK/MAP3K14) Activity
Assay buffer was 50 mM Tris pH 7.5 containing 1 mM EGTA (ethylene glycol tetraacetic acid), 1 mM DTT (dithiothreitol), 0.1 mM Na3VO4, 5 mM MgCl2, 0.01% Tween® 20. Assays were carried out in 384 well Mesoscale high binding plates which had been coated with myelin basic protein (MBP) and blocked with bovine serum albumin to prevent non-specific protein binding. All compounds tested were dissolved in dimethyl sulfoxide (DMSO) and further dilutions were made in assay buffer. Final DMSO concentration was 1% (v/v) in assays. Incubations consisted of compound (1% DMSO in control and blank wells), 25 μM […] (ATP), and 10 nM NIK/MAP3K14 substituting enzyme with buffer in the blank wells. Incubations were carried out for 1 h at 25° C. and were followed by washing and sequential incubation with rabbit anti-phospho-MBP and anti-rabbit Ig Sulfotag antibody before reading bound Sulfotag on a Mesoscale Discovery. Signal obtained in the wells containing blank samples was subtracted from all other wells and […] were determined by fitting a sigmoidal curve to % inhibition of control versus Log10 compound concentration.
as §1

[3] = target: T1, recombinant human NF-kappaB-inducing kinase (NIK/MAP3K14); assay: Biological Assay B: inhibition of auto-phosphorylation of recombinant human NIK/MAP3K14 (AlphaScreen), performed at 2 locations; format: biochemical; settings: AlphaScreen auto-phosphorylation, averaged values
Method in brief: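 GST-tagged NIK (0.2 nM) auto-phosphorylation with 25 microM ATP in 50 mM Tris pH 7.5, 5 mM MgCl2, 1% DMSO, 1 h at 25° C. Anti-phospho-IKK Ser176/180 AlphaScreen readout; blank-subtracted IC50 from sigmoidal fit. Run at two sites.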

[4] = Homo sapiens, L-363, location 2, read-out: Assay C location 2 IC50
[5] = location 2, read-out: Assay B location 2 IC50
[6] = Homo sapiens, L-363, location 1, read-out: Assay C location 1 IC50
[7] = location 1, read-out: Assay B location 1 IC50
[8] = location 2, read-out: Assay C location 2 IC50

Row | Structure (SMILES) | IC50 [1, 4] [nM] | IC50 [2] [nM] | IC50 [3, 5] [nM] | IC50 [1, 6] [nM] | IC50 [3, 7] [nM] | IC50 [1, 8] [nM]
1 | COc1cc(C(=O)NC2CCOCC2)ccc1Nc1nccc(-c2cnc3c(c2)C(C)(CO)CN3)n1 (stereo not shown) [Compound 1] | 129 | 12 | 2.6 |  |  | 
2 | CC(=O)NCc1ccc(Nc2nccc(-c3cnc4c(c3)C(C)(C)CN4)n2)c(C)c1 [Compound 44] | 243 | 20 | 2.5 |  |  | 
3 | COc1cc(Nc2nccc(-c3cnc4c(c3)C(C)(CO)CN4)n2)cc(OC)c1OC (stereo not shown) [Compound 46] | ~129 | 3.3 | 2.8 |  |  | 
4 | COc1cc(CNC(C)=O)c(C)c(Nc2nccc(-c3cnc4c(c3)C(C)(C)CN4)n2)c1 [Compound 49] | 43.7 | 6.2 | 1.8 | 550 |  | 
5 | COc1cc(C(=O)NC2CCOCC2)ccc1Nc1nccc(-c2cnc3c(c2)C(C)(C)CN3)n1 [Compound 50] | 81.3 | 7.4 | 1.2 |  |  | 
6 | Cc1cc(C(=O)N2CCC(O)CC2)ccc1Nc1nccc(-c2cnc3c(c2)C(C)(C)CN3)n1 [Compound 54] | 373 | 8.9 | 3.4 | 263 |  | 
7 | Cc1cc(C(=O)NC2CN(C)C2)ccc1Nc1nccc(-c2cnc3c(c2)C(C)(C)CN3)n1 [Compound 55] | 288 | 32.4 | 3.3 |  |  | 
8 | COc1cc(C(=O)NC2CCN(C)CC2)ccc1Nc1nccc(-c2cnc3c(c2)C(C)(C)CN3)n1 [Compound 60] | 407 | 5.5 | 1.2 |  |  | 
9 | COc1cc(CNC(C)=O)ccc1Nc1nccc(-c2cnc3c(c2)C(C)(C)CN3)n1 [Compound 62] | 43.7 | 5.5 | 1.4 |  |  | 
10 | COC1CCN(C(=O)c2ccc(Nc3nccc(-c4cnc5c(c4)C(C)(C)CN5)n3)c(C)c2)CC1 [Compound 79] | 74.1 | 11.8 | 1.3 | 661 |  | 
11 | Cc1cc(C(=O)N2CCN(C)CC2)ccc1Nc1nccc(-c2cnc3c(c2)C(C)(C)CN3)n1 [Compound 81] | 589 | 14.8 | 2.6 |  |  | 
12 | CC1(C)CNc2ncc(-c3ccnc(Nc4ccc(C(=O)NC5CCOCC5)cc4OC(F)F)n3)cc21 [Compound 82] | 282 | 24.6 | 2.7 |  |  | 
13 | COc1cc(CNC(C)=O)c(C)c(Nc2nccc(-c3cnc4c(c3)C(C)(CO)CN4)n2)c1 (stereo not shown) [Compound 84] | 49 | 5.4 | 4.8 |  |  | 
14 | CC(=O)NCc1ccc(Nc2nccc(-c3cnc4c(c3)C(C)(C)CN4)n2)c(OC(F)F)c1 [Compound 85] | 67.6 | 14.1 | 3 |  |  | 
15 | CC(=O)NCc1ccc(Nc2nccc(-c3cnc4c(c3)C(C)(CO)CN4)n2)c(C)c1 (stereo not shown) [Compound 86] | 550 | 15.1 | 11.2 |  |  | 
16 | Cc1cc(C(=O)NC2CCOCC2)ccc1Nc1nccc(-c2cnc3c(c2)C(C)(CO)CN3)n1 (stereo not shown) [Compound 87] | 1150 | 21.4 | 13.5 |  | 17.8 | 
17 | Cc1cc(C(=O)NC2CN(C)C2)ccc1Nc1nccc(-c2cnc3c(c2)C(C)(CO)CN3)n1 (stereo not shown) [Compound 89] | 5010 | 63.1 | 20.4 |  |  | 
18 | COc1cc(Nc2nccc(-c3cnc4c(c3)C(C)(CO)CN4)n2)c(C)c(C(=O)NC2CN(C)C2)c1 (stereo not shown) [Compound 90] | 759 | 14.8 | 5.1 |  |  | 
19 | COc1cc(Nc2nccc(-c3cnc4c(c3)C(C)(C)CN4)n2)c(C)c(C(=O)NC2CCOCC2)c1 [Compound 105] | 436 | 30.2 |  |  |  | 
20 | COCCNC(=O)c1cc(OC)cc(Nc2nccc(-c3cnc4c(c3)C(C)(C)CN4)n2)c1C [Compound 106] | 95.5 | 15.9 |  |  |  | 
21 | COc1cc(Nc2nccc(-c3cnc4c(c3)C(C)(C)CN4)n2)c(C)c(C(=O)N2CCC(O)CC2)c1 [Compound 107] | 72.4 | 13.5 |  |  |  | 
22 | COc1cc(Nc2nccc(-c3cnc4c(c3)C(C)(C)CN4)n2)c(C)c(C(=O)N2CCOCC2)c1 [Compound 108] | 102 | 15.1 |  |  |  | 
23 | Cc1cc(C(=O)N2CCC(O)CC2)ccc1Nc1nccc(-c2cnc3c(c2)C(C)(CO)CN3)n1 (stereo not shown) [Compound 109] | 309 | 10.2 | 5.5 |  |  | 
24 | CC1(C)CNc2ncc(-c3ccnc(Nc4ccc(C(=O)NC5CCOCC5)cc4C(F)F)n3)cc21 [Compound 110] | 2340 | 129 |  |  |  | 

Further lines, results first:

Row | IC50 [1, 4] [nM] | IC50 [2] [nM] | IC50 [3, 5] [nM] | IC50 [1, 6] [nM] | IC50 [3, 7] [nM] | IC50 [1, 8] [nM] | Structure (SMILES)
25 | > 10000 | 251 |  |  |  |  | COc1c(Nc2nccc(-c3cnc4c(c3)C(C)(C)CN4)n2)cccc1C(=O)N1CCC(O)CC1 [Compound 114]
26 | 3160 | 309 |  |  |  |  | COc1cc(C#N)ccc1Nc1nccc(-c2cnc3c(c2)C(C)(C)CN3)n1 [Compound 116]
27 | > 10000 | 162 |  |  |  |  | Cc1cc(N2CCOCC2)ccc1Nc1nccc(-c2cnc3c(c2)C(C)(C)CN3)n1 [Compound 117]
28 | 5500 | 295 |  |  |  |  | COc1ccc(S(C)(=O)=O)cc1Nc1nccc(-c2cnc3c(c2)C(C)(C)CN3)n1 [Compound 119]
29 | 427 | 9.3 | 7.8 |  |  |  | Cc1cc(C(=O)N2CCOCC2)ccc1Nc1nccc(-c2cnc3c(c2)C(C)(CO)CN3)n1 (stereo not shown) [Compound 120]
30 |  | 11.2 | 7.2 |  |  | 380 | COC1CCN(C(=O)c2ccc(Nc3nccc(-c4cnc5c(c4)C(C)(CO)CN5)n3)c(C)c2)CC1 (stereo not shown) [Compound 121]
31 | 2750 | 7.8 |  |  |  |  | Cc1cc(C(=O)NC2CCOCC2)ccc1Nc1nccc(-c2cnc3c(c2)C(C)(CCO)CN3)n1 (stereo not shown) [Compound 124]
32 | 1230 | 12.3 |  |  | 31.6 |  | Cc1cc(C(=O)NC2CCOCC2)ccc1Nc1nccc(-c2cnc3c(c2)C(C)(CCC#N)CN3)n1 (stereo not shown) [Compound 125]
33 | 537 | 8.7 |  |  | 14.8 |  | Cc1cc(C(=O)NC2CCOCC2)ccc1Nc1nccc(-c2cnc3c(c2)C(C)(CC#N)CN3)n1 (stereo not shown) [Compound 126]
34 | 191 | 7.9 |  |  |  |  | CC1(C)CNc2ncc(-c3ccnc(Nc4ccc(C(=O)N5CCC(C#N)CC5)cc4OC(F)F)n3)cc21 [Compound 128]
35 | 229 | 15.9 |  |  |  |  | COC1CCN(C(=O)c2ccc(Nc3nccc(-c4cnc5c(c4)C(C)(C)CN5)n3)c(OC(F)F)c2)CC1 [Compound 129]
36 | 661 | 10.2 | 10.7 |  |  |  | COc1cc(C(=O)NC2CCN(C)CC2)ccc1Nc1nccc(-c2cnc3c(c2)C(C)(CO)CN3)n1 (stereo not shown) [Compound 130]
37 | 70.8 | 4.5 | 0.9 |  |  |  | COc1cc(C(=O)N2CCC(OC)CC2)ccc1Nc1nccc(-c2cnc3c(c2)C(C)(CO)CN3)n1 (stereo not shown) [Compound 131]
38 | 513 | 3.3 | 3.1 |  | 10 |  | COc1cc(C(=O)N2CCS(=O)(=O)CC2)ccc1Nc1nccc(-c2cnc3c(c2)C(C)(CO)CN3)n1 (stereo not shown) [Compound 132]
39 |  | 5.8 |  |  |  | 129 | COC1CCN(C(=O)c2ccc(Nc3nccc(-c4cnc5c(c4)C(C)(CO)CN5)n3)c(C)c2)CC1 (stereo not shown) [Compound 133]
